In the assay the test system is Bleomycin-induced Lung Injury Model Animal. Briefly: Bleomycin-induced lung injury model, lung tissue hydroxyproline content. Type of assay: in vivo, ICR male mice. As to the method:
Production of Bleomycin-induced Lung Injury Model Animal:
Using each of ICR male mice and under pentobarbital (60 mg/kg, i.v.) anesthesia, the cervical region was shaved and the skin was incised for about 4 mm from under the larynx region along the median line. Next, the muscle layer covering upper trachea was peeled off to expose the trachea. Using a micro-syringe, physiological saline or bleomycin hydrochloride (0.03 mg/animal, manufactured by Nippon Kayaku) was administered tracheally (50 μl/animal) from the tracheal smooth muscle region between cricoid cartilage. After the administration, the incised region was closed and antibiotics were administered into the thigh intramuscularly in order to prevent infection. S1P (10 mg/5 ml/kg, 0.5% aqueous solution of carboxymethylcellulose sodium (CMC.Na)-physiological saline, manufactured by Matreya) was intraperitoneally administered once a day for 14 days after the bleomycin induction. […]
The hydrolyzed supernatant (25 μl) was mixed with borate-alanine buffer (2.475 ml) separately prepared, and potassium chloride (solid) was added thereto until it was saturated. […] The absorbance of each sample was immediately measured at 560 nm, and the amount of hydroxyproline in the sample was calculated from a calibration curve.
The inhibition ratio was calculated by the following equation. […]

In the case of `CCCCCCCCCCCCC/C=C/[C@H](O)[C@H](N)COP(=O)(O)O` (stereo in doubt) [S1P, sphingosine 1-phosphate], the “Inhibition ratio: suppression of bleomycin-induced increase of hydroxyproline content” value ([{(C−B)−(S−B)}÷(C−B)]×100, S1P 10 mg/kg i.p. once a day for 14 days, ICR male mice) is on record as “ca. 90%”. The same compound yielded a Hydroxyproline content (bleomycin-induced (0.03 mg/animal, tracheal) ICR male mice, S1P 10 mg/5 ml/kg i.p. once a day for 14 days, lung excised fifteen days after induction) of 227.8 ± 17.5 μg/lung.

The record behind these values is US7151093B2, “Use of sphingosine 1-phosphate as active ingredient for the treatment of pulmonary fibrosis” (Ono Pharmaceutical Co., Ltd., priority 1999, dated 2006).
